Literature values in patent US20230337663A1, “AGRICULTURAL COMPOSITION” (REVOLUTION BIOTECH LLC, priority 2020, published 2023).

Conditions: Ecolabel Lubricant Substance Classification List

Farnesene, mixture of isomers
toxicity label: non-toxic
